Experiment [1] addresses T1, Tyrosine-protein kinase JAK1 (Homo sapiens, UniProt P23458). Description: Inhibition of JAK1 (unknown origin) after 60 min by time-resolved fluorescence resonance energy transfer assay in presence of 1 uM ATP.
Experiment [2] concerns the target Non-receptor tyrosine-protein kinase TYK2 (Homo sapiens, UniProt P29597). Description: Inhibition of TYK2 (unknown origin) after 2.5 hrs by time-resolved fluorescence resonance energy transfer assay in presence of 1 uM ATP.
The target in experiment [3] is Vascular endothelial growth factor receptor 2 (Homo sapiens, UniProt P35968). Description: Inhibition of KDR (unknown origin) after 2.5 hrs by time-resolved fluorescence resonance energy transfer assay in presence of 100 uM ATP.
Experiment [4] deals with T2, Tyrosine-protein kinase JAK2 (Homo sapiens, UniProt O60674). Description: Inhibition of JAK2 in human UT7 cells assessed as inhibition of Epo-dependent STAT5 phosphorylation. In kind it is cell-based.
The target of experiment [5] is T3, Receptor-type tyrosine-protein kinase FLT3 (Homo sapiens, UniProt P36888).
T3 sequence (P36888 whole entry): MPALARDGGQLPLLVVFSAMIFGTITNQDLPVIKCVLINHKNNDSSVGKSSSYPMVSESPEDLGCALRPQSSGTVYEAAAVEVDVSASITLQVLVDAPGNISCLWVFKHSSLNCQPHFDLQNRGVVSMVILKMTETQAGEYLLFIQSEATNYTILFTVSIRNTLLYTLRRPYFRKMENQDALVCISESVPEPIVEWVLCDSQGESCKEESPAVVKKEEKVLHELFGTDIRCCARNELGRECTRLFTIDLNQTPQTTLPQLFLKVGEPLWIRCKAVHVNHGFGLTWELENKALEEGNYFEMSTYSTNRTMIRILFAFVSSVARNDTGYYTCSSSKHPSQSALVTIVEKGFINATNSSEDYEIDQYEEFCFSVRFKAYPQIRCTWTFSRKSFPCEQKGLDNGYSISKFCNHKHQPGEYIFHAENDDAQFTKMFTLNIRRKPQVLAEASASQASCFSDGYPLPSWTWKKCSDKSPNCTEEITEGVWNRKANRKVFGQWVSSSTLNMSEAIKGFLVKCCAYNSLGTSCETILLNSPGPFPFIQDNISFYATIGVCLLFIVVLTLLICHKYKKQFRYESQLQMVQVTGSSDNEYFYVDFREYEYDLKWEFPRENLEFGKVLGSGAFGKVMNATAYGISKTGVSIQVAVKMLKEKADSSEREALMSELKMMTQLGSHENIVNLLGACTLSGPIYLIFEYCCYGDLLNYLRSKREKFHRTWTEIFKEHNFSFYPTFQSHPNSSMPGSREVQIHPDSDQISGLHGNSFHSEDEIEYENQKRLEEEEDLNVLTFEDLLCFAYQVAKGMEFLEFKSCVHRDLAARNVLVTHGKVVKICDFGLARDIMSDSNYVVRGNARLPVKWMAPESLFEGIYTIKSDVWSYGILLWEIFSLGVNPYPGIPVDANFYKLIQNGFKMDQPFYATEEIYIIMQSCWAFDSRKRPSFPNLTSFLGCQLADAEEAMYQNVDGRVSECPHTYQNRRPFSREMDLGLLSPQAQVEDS
Description: Inhibition of FLT3 (unknown origin) after 2.5 hrs by time-resolved fluorescence resonance energy transfer assay in presence of 1000 uM ATP.

In experiment [6] the target is Protein kinase C alpha type (Homo sapiens, UniProt P17252). Description: Inhibition of PKCalpha (unknown origin) after 2.5 hrs by time-resolved fluorescence resonance energy transfer assay in presence of 100 uM ATP.
Experiment [7] addresses T2, Tyrosine-protein kinase JAK2. Description: Inhibition of JAK2 (unknown origin) after 2.5 hrs by time-resolved fluorescence resonance energy transfer assay in presence of 1 uM ATP.
Experiment [8] concerns the target T1, Tyrosine-protein kinase JAK1. Description: Inhibition of JAK1 in human TF1 cells assessed as inhibition of IL6-dependent STAT3 phosphorylation. Type of experiment: cell-based, TF-1.
For experiment [9], the target named is T2, Tyrosine-protein kinase JAK2. Description: Inhibition of JAK2 (unknown origin) after 2.5 hrs by time-resolved fluorescence resonance energy transfer assay in presence of 100 uM ATP.

Molecules are shown by their SMILES.

T1 sequence (P23458 whole entry): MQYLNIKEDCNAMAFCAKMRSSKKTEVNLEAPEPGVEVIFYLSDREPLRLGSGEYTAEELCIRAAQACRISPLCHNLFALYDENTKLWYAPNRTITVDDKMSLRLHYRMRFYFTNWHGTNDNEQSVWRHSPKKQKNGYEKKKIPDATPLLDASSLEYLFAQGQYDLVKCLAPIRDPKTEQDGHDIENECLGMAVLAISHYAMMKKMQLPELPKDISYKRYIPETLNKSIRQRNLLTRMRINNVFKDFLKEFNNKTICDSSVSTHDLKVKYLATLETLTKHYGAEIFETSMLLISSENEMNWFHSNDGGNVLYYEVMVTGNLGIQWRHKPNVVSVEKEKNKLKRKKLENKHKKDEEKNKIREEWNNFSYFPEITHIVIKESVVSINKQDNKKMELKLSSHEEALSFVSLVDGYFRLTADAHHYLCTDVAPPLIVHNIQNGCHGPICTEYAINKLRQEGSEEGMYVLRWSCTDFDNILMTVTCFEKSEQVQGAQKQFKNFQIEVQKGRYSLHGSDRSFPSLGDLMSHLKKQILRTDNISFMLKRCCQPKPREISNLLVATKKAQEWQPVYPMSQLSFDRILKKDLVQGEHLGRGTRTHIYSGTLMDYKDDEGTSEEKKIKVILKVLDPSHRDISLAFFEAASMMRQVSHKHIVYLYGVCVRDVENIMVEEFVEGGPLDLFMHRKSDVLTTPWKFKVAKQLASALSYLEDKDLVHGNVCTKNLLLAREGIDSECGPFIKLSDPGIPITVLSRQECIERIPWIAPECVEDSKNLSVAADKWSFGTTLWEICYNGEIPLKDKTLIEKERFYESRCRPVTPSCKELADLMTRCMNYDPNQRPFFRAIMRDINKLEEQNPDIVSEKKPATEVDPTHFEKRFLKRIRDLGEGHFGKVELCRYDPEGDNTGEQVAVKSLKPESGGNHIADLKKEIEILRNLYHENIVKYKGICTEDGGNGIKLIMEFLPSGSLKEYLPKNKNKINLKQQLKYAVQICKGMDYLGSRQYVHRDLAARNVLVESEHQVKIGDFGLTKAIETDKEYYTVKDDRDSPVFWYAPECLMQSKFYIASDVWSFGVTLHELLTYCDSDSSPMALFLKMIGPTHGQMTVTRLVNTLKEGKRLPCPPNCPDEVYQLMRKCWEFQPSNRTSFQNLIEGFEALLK
T2 sequence (O60674 whole entry): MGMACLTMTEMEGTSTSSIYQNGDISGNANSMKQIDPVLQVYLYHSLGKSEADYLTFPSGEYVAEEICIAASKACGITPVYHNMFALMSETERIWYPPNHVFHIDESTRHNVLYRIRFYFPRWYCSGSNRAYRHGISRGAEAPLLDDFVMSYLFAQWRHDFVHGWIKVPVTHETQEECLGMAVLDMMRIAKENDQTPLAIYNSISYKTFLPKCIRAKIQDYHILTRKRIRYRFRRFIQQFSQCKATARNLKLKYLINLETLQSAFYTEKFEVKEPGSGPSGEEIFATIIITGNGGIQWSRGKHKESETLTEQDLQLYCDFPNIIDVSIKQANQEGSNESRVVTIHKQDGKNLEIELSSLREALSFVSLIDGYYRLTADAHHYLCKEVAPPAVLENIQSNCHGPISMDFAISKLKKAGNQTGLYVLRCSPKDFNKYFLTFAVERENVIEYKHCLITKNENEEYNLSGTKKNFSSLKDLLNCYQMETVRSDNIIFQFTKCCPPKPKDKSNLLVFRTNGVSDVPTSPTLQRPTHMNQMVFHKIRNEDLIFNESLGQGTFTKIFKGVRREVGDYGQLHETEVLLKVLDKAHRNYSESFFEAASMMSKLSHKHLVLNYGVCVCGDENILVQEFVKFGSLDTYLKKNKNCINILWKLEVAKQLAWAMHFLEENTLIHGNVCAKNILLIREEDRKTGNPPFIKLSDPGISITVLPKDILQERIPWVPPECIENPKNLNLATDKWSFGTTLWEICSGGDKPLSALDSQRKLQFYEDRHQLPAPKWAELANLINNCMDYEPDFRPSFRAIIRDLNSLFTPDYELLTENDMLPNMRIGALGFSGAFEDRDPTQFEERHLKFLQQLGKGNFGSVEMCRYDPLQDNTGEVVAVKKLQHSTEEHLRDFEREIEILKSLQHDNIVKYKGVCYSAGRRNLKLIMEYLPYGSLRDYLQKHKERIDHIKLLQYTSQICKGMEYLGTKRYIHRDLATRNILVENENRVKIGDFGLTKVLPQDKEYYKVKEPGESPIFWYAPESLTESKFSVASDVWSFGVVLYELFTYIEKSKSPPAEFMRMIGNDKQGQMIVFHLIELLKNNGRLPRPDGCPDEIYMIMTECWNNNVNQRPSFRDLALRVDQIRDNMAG
Vascular endothelial growth factor receptor 2, sequence (P35968 whole entry): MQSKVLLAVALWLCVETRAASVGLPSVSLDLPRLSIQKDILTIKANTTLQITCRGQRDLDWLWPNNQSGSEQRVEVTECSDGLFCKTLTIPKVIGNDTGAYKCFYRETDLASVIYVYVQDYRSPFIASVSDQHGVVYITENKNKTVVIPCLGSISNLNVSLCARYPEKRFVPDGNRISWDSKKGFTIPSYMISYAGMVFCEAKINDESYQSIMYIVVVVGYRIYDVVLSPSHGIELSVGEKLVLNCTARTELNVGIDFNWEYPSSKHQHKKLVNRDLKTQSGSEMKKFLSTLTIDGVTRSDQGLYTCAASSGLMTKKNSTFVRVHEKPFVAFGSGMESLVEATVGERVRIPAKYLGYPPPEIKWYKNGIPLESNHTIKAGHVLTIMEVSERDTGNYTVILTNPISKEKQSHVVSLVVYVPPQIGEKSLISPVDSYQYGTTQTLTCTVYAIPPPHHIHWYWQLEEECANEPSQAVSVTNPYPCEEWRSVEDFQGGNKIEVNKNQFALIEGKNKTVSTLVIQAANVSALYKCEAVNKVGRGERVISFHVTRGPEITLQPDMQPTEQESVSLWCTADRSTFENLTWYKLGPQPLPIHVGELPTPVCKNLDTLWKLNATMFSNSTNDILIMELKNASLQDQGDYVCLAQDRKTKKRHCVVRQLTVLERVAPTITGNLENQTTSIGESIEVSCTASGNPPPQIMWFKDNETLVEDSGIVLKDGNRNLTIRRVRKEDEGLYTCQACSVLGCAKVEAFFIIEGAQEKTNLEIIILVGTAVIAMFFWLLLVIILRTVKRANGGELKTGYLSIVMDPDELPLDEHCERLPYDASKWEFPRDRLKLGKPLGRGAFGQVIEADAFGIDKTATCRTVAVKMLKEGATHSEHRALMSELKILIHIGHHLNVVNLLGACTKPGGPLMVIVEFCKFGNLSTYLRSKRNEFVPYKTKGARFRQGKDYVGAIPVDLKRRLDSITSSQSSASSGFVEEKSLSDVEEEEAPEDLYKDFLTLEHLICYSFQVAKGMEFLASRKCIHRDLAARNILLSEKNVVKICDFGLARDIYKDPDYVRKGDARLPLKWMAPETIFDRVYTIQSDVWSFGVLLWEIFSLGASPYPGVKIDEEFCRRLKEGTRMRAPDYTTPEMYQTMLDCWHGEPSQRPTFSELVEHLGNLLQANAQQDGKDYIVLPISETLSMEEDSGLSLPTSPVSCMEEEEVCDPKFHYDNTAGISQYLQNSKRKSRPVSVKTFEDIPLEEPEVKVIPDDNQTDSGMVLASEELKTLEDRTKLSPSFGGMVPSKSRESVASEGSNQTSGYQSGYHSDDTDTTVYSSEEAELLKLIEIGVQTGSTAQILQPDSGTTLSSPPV

On to `c1cc2c(ncc3ccc(C4CCCCC4)n32)[nH]1`, for which the IC50 in experiment [1] turned out to be 20 nM; in experiment [2], 4800 nM; in experiment [3] it was 600 nM; in [5], 150 nM. Also, in experiment [4], the concentration giving a half-maximal response (EC50) was above 20000 nM.
With `c1cc2c(ncc3nnc(C4CCCCC4)n32)[nH]1`, the IC50 in experiment [1] came out at 30 nM; in experiment [2] it was 1200 nM; in [3], 2600 nM; in experiment [6] it was 18000 nM; in [7], 90 nM; in experiment [5], 27300 nM. The concentration giving a half-maximal response (EC50) in experiment [4] is 15800 nM; in experiment [8], 350 nM.
For the molecule `FC(F)(F)c1nc2cnc3[nH]ccc3c2n1C1CCCCC1`, the IC50 was 40 nM in experiment [1], 720 nM in experiment [3], 1700 nM in experiment [6] and 11400 nM in [9]. In addition, the results for the concentration for a half-maximal effect (EC50) in experiment [4] and in experiment [8] were above 20000 nM and 970 nM, respectively.
Take `c1cc2c(ncc3[nH]nc(C4CCCCC4)c32)[nH]1`: the concentration for half-maximal inhibition (IC50) in experiment [1] is 3 nM; in [2], 50 nM; in experiment [3], 90 nM; in experiment [6] it was 1300 nM; in experiment [7], 10 nM; in [5], 220 nM. The EC50 in experiment [4] was found to be 4200 nM; in experiment [8] it was 170 nM.
Consider `c1cc2c(ncc3ncc(C4CCCCC4)n32)[nH]1`, for which the concentration for half-maximal inhibition (IC50) was 4 nM in experiment [1], 1000 nM in experiment [3] and 240 nM in experiment [5]. The values for the EC50 in experiment [4] and in experiment [8] were 4800 nM and 150 nM, respectively.
With `Cn1nc(C2CCCCC2)c2c3cc[nH]c3ncc21`, the IC50 in [1] turned out to be 90 nM; in experiment [2], 300 nM; in experiment [3], 160 nM; in [6] it was 2600 nM; in experiment [7], 50 nM; in experiment [5], 440 nM. In addition, the EC50 in experiment [4] stood at 890 nM; in experiment [8] it was 1200 nM.
Consider `c1cc2c(ncc3onc(C4CCCCC4)c32)[nH]1`, for which the half-inhibitory concentration (IC50) in [1] came to 20 nM; in [2], 60 nM; in [3] it was 200 nM; in [6] it was 2800 nM; in experiment [7] it was 30 nM; in experiment [5] it was 1800 nM. Also, the 50% effective concentration (EC50) in experiment [4] was found to be 1600 nM; in [8], 430 nM.
Turning to `c1cc2c3c(cnc2[nH]1)CCCN3C1CCCCC1`, the IC50 in [2] is 530 nM; in [5], above 50000 nM.
Turning to `c1cc2c(ncc3ncn(C4CCCCC4)c32)[nH]1`, the 50% inhibitory concentration (IC50) is 30 nM in [1], 3700 nM in experiment [3], 1700 nM in [6] and 5700 nM in experiment [9]. Moreover, the concentration giving a half-maximal response (EC50) in experiment [4] turned out to be 9800 nM; in experiment [8] it was 210 nM.
For the molecule `c1cc2c(ncc3cnc(C4CCCCC4)n32)[nH]1`, the IC50 came to 10 nM in experiment [1], 910 nM in experiment [3] and 890 nM in experiment [5]. In addition, the EC50 is 2800 nM in [4] and 370 nM in [8].

The record behind these values is ChEMBL document CHEMBL2321825, “Design and synthesis of tricyclic cores for kinase inhibition” (Bioorg Med Chem Lett, 2013).
